In patent US9492471B2, “Methods of treating a disease or disorder associated with Bruton'S Tyrosine Kinase” (Celgene Avilomics Research, Inc., priority 2013, dated 2016):
Read-outs that look alike come from different tables or passages of the source.

How the values were obtained:
Experiment in all cases: HotSpot kinase profiling
Format in all cases: biochemical
LCK = target: T1, LCK (Homo sapiens, UniProt P06239)
T1 construct: purchased Reaction Biology Corp
Outline: (§1)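 P81 filtration radiometric readout; 2 h incubation at room temperature; 0.1% phosphoric acid wash; DMSO negative control; % inhibition, mean of replicate runs.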

SGK3/SGKL = target: T2, SGK3/SGKL (Homo sapiens, UniProt Q96BR1)
T2 construct: purchased Reaction Biology Corp
T2 sequence (Q96BR1 1-496): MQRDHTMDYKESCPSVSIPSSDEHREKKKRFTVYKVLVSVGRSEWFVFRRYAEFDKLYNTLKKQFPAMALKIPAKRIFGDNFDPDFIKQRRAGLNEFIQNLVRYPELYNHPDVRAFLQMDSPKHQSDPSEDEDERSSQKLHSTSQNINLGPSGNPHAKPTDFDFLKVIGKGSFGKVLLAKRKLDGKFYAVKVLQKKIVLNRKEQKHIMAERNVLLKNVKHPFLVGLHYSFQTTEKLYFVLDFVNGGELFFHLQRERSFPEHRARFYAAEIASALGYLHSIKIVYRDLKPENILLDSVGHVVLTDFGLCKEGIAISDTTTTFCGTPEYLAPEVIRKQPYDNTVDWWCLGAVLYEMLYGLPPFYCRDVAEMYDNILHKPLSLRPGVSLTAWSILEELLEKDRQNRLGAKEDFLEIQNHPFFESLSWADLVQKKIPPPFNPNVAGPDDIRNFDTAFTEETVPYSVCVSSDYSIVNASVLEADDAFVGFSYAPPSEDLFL
Outline: as §1

SYK = target: T3, SYK (Homo sapiens, UniProt P43405)
T3 construct: purchased Reaction Biology Corp

CHK2 = target: T4, CHK2 (Homo sapiens, UniProt O96017)
T4 construct: purchased Reaction Biology Corp
Outline: as §1

FGFR1 = target: T5, FGFR1 (Homo sapiens, UniProt P11362)
T5 construct: purchased Reaction Biology Corp
T5 sequence (P11362 22-822): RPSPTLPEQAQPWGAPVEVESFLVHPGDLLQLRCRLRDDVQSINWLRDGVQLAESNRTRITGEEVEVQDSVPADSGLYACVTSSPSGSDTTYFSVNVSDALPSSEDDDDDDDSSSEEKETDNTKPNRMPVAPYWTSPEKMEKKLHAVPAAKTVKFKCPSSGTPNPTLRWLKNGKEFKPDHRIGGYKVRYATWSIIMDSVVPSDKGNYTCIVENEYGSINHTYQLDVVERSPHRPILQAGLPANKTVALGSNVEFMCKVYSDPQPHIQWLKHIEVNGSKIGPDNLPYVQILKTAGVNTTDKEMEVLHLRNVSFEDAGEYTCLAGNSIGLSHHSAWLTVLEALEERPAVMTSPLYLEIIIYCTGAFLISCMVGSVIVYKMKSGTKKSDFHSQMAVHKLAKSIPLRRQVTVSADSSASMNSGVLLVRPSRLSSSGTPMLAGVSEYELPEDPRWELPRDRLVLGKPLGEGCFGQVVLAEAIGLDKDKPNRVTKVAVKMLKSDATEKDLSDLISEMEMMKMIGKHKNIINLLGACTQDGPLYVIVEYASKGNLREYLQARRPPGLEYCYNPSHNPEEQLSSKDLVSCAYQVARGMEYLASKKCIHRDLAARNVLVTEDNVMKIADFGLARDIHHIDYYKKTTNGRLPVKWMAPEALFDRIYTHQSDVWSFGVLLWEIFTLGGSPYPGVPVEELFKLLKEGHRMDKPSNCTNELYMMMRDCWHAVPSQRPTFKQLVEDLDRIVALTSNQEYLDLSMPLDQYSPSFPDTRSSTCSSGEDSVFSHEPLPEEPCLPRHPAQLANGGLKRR
Outline: as §1

CAMK2g = target: T6, CAMK2g (Homo sapiens, UniProt Q13555)
T6 construct: purchased Reaction Biology Corp
T6 sequence (Q13555 whole entry): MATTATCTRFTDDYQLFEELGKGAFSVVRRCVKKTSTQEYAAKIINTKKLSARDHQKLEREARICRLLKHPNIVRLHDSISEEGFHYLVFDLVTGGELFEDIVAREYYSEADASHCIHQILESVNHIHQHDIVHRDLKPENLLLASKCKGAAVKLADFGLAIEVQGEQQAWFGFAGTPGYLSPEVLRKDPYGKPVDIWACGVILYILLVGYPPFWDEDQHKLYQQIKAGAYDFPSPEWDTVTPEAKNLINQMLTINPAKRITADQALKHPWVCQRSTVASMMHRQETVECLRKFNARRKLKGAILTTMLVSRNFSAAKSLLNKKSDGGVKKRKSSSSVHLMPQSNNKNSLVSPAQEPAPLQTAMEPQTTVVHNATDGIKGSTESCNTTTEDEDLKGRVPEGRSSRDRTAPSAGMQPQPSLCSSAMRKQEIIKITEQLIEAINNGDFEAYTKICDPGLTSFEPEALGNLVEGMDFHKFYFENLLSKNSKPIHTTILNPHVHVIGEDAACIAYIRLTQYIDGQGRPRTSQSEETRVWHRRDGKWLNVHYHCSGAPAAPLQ
Outline: as §1

PKN3/PRK3 = target: T7, PKN3/PRK3 (Homo sapiens, UniProt Q6P5Z2)
T7 construct: purchased Reaction Biology Corp
T7 sequence (Q6P5Z2 whole entry): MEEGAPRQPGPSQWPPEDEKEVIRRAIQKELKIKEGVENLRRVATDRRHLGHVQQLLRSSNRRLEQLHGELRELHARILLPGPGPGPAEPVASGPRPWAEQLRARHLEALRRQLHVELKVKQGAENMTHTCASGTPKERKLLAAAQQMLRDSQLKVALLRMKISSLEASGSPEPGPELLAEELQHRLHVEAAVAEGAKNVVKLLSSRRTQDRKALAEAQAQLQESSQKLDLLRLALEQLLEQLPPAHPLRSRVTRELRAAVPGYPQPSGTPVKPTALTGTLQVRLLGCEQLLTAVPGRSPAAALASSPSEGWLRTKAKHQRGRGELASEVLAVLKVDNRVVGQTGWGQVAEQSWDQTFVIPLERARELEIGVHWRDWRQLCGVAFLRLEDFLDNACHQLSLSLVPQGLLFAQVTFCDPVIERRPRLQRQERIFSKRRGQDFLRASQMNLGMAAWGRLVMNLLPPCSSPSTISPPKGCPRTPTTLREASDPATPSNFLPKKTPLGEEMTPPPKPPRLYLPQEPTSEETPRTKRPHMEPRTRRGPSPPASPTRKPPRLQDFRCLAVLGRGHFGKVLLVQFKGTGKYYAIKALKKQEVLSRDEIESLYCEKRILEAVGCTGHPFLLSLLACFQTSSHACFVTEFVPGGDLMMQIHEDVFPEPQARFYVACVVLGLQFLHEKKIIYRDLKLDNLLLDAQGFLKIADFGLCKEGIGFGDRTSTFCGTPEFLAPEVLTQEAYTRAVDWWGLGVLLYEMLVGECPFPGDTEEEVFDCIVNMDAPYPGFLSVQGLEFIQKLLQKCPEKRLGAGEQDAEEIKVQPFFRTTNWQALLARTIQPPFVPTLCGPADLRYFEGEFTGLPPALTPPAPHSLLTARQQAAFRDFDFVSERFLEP
Outline: as §1

ABL2/ARG = target: T8, ABL2/ARG (Homo sapiens, UniProt P42684)
T8 construct: purchased Reaction Biology Corp
Outline: as §1

MLCK/MYLK = target: T9, MLCK/MYLK (Homo sapiens, UniProt Q15746)
T9 construct: purchased Reaction Biology Corp
Outline: as §1

GRK5 = target: T10, GRK5 (Homo sapiens, UniProt P34947)
T10 construct: purchased Reaction Biology Corp
T10 sequence (P34947 whole entry): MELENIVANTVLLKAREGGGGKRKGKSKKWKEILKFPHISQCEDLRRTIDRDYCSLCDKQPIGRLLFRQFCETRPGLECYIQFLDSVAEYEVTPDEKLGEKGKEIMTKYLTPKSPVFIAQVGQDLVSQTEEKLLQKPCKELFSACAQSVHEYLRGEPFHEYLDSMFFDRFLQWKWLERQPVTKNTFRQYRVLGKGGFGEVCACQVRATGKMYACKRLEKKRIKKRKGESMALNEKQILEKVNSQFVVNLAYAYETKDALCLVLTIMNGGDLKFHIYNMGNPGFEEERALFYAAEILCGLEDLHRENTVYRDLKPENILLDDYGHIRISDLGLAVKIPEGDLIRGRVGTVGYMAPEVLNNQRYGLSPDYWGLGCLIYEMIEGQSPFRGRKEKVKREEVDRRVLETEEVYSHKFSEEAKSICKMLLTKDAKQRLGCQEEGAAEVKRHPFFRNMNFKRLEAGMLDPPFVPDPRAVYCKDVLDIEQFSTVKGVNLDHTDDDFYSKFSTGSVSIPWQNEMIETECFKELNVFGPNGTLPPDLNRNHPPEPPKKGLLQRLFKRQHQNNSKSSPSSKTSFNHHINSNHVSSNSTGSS
Outline: as §1

BRK = target: T11, BRK (Homo sapiens, UniProt Q13882)
T11 construct: purchased Reaction Biology Corp
Outline: as §1

MAPKAPK2 = target: T12, MAPKAPK2 (Homo sapiens, UniProt P49137)
T12 construct: purchased Reaction Biology Corp
Outline: as §1

MNK2 = target: T13, MNK2 (Homo sapiens, UniProt Q9HBH9)
T13 construct: purchased Reaction Biology Corp
T13 sequence (Q9HBH9 whole entry): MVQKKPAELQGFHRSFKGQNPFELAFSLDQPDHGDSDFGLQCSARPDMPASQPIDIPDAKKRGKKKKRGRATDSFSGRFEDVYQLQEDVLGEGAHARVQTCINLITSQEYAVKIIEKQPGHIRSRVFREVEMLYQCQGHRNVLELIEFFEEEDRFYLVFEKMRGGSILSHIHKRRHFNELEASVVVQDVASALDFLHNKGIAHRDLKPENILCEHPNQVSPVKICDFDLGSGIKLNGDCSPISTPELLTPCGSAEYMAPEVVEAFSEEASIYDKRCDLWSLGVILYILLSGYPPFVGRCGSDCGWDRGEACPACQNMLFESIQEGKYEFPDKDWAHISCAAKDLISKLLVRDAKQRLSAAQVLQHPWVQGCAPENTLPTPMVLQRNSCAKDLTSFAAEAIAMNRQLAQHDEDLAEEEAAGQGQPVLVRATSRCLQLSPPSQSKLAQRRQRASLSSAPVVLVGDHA
Outline: as §1

OSR1/OXSR1 = target: T14, OSR1/OXSR1 (Homo sapiens, UniProt O95747)
T14 construct: purchased Reaction Biology Corp
T14 sequence (O95747 whole entry): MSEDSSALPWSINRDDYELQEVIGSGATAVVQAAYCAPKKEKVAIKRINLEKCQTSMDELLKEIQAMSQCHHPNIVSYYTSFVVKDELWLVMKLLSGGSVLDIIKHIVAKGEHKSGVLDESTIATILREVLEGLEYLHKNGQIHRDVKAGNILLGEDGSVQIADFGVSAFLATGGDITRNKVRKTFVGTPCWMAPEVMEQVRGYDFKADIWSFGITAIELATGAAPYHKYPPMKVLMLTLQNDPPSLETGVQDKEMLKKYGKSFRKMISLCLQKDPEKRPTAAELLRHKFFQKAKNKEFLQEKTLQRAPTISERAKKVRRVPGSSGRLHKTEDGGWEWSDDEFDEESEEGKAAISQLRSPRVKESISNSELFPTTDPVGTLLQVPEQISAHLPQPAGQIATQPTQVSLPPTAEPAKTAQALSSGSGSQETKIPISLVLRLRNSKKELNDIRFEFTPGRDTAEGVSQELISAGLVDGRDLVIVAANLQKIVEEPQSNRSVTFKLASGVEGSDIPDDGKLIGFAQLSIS
Outline: as §1

TGFBR2 = target: T15, TGFBR2 (Homo sapiens, UniProt P37173)
T15 construct: purchased Reaction Biology Corp
T15 sequence (P37173 23-567): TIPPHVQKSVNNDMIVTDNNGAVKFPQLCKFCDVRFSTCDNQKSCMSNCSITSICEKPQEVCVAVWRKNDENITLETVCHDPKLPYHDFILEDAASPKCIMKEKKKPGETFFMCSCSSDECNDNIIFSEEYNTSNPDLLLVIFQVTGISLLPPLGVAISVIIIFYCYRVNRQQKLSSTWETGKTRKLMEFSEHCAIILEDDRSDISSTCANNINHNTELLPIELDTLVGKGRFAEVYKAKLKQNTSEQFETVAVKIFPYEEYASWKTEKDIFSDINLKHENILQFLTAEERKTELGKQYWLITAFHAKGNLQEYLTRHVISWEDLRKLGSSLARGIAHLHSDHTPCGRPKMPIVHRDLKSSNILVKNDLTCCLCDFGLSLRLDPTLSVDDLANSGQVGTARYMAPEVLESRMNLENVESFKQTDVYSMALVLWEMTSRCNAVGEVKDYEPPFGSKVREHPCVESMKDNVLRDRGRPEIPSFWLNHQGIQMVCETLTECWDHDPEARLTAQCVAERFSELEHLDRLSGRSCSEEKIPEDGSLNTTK
Outline: as §1

[1] = read-out: % Enzyme Activity (relative to DMSO controls) Run 1
[2] = read-out: % Enzyme Activity (relative to DMSO controls) Run 2

T1 sequence (P06239 whole entry): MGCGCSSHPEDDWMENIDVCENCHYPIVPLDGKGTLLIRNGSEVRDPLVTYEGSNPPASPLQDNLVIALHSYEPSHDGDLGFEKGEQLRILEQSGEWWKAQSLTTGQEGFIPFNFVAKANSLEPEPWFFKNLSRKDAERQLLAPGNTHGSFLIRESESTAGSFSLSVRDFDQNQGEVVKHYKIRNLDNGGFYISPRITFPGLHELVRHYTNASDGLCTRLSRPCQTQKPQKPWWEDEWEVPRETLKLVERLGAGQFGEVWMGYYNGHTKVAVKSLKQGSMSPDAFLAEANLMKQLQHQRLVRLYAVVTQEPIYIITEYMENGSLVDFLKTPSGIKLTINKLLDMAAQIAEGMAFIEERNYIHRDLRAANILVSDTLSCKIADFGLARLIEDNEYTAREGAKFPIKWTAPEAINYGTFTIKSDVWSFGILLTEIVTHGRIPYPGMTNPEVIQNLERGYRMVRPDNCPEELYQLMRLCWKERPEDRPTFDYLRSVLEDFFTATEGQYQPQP

Question: C=CC(=O)Nc1cccc(Nc2nc(Nc3ccc(OCCOC)c(F)c3)ncc2F)c1 [Compound 2] was tested. Which inhibition at 3 µM (LCK) did it give?
Answer: Its inhibition at 3 µM is 36%.

Question: What about the remaining activity at 3 µM (LCK; [1]) of the same compound?
Answer: The remaining activity at 3 µM was 64.7%.

Question: And the remaining activity at 3 µM (LCK; [2])?
Answer: The remaining activity at 3 µM was 63.4%.

Question: And the inhibition at 3 µM (SGK3/SGKL)?
Answer: The inhibition at 3 µM was -2.42%.

Question: What about the remaining activity at 3 µM (SGK3/SGKL; [1]) of the same compound?
Answer: Its remaining activity at 3 µM is 99.5%.

Question: And the remaining activity at 3 µM (SGK3/SGKL; [2])?
Answer: The remaining activity at 3 µM was 105%.

Question: What about the inhibition at 3 µM (SYK) of the same compound?
Answer: The inhibition at 3 µM was 22.4%.

Question: What about the remaining activity at 3 µM (SYK; [1]) of the same compound?
Answer: Its remaining activity at 3 µM is 78%.

Question: And the remaining activity at 3 µM (SYK; [2])?
Answer: Its remaining activity at 3 µM is 77.1%.

Question: And the inhibition at 3 µM (CHK2)?
Answer: Its inhibition at 3 µM is 74.4%.

Question: What about the remaining activity at 3 µM (CHK2; [1]) of the same compound?
Answer: Its remaining activity at 3 µM is 25.9%.

Question: What about the remaining activity at 3 µM (CHK2; [2]) of the same compound?
Answer: Its remaining activity at 3 µM is 25.3%.

Question: And the inhibition at 3 µM (FGFR1)?
Answer: Its inhibition at 3 µM is 59.7%.

Question: And the remaining activity at 3 µM (FGFR1; [1])?
Answer: Its remaining activity at 3 µM is 41.4%.

Question: What about the remaining activity at 3 µM (FGFR1; [2]) of the same compound?
Answer: The remaining activity at 3 µM was 39.3%.

Question: And the inhibition at 3 µM (CAMK2g)?
Answer: The inhibition at 3 µM was -7.18%.

Question: What about the remaining activity at 3 µM (CAMK2g; [1]) of the same compound?
Answer: The remaining activity at 3 µM was 104%.

Question: And the remaining activity at 3 µM (CAMK2g; [2])?
Answer: Its remaining activity at 3 µM is 111%.

Question: What about the inhibition at 3 µM (PKN3/PRK3) of the same compound?
Answer: The inhibition at 3 µM was -7.32%.

Question: What about the remaining activity at 3 µM (PKN3/PRK3; [1]) of the same compound?
Answer: The remaining activity at 3 µM was 106%.

Question: And the remaining activity at 3 µM (PKN3/PRK3; [2])?
Answer: The remaining activity at 3 µM was 108%.

Question: And the inhibition at 3 µM (ABL2/ARG)?
Answer: Its inhibition at 3 µM is 62.8%.

Question: What about the remaining activity at 3 µM (ABL2/ARG; [1]) of the same compound?
Answer: The remaining activity at 3 µM was 37.3%.

Question: And the remaining activity at 3 µM (ABL2/ARG; [2])?
Answer: Its remaining activity at 3 µM is 37.1%.

Question: And the inhibition at 3 µM (MLCK/MYLK)?
Answer: The inhibition at 3 µM was 4.59%.

Question: What about the remaining activity at 3 µM (MLCK/MYLK; [1]) of the same compound?
Answer: Its remaining activity at 3 µM is 95.6%.

Question: And the remaining activity at 3 µM (MLCK/MYLK; [2])?
Answer: The remaining activity at 3 µM was 95.2%.

Question: What about the inhibition at 3 µM (GRK5) of the same compound?
Answer: The inhibition at 3 µM was -2.59%.

Question: And the remaining activity at 3 µM (GRK5; [1])?
Answer: Its remaining activity at 3 µM is 103%.

Question: What about the remaining activity at 3 µM (GRK5; [2]) of the same compound?
Answer: Its remaining activity at 3 µM is 102%.

Question: And the inhibition at 3 µM (BRK)?
Answer: The inhibition at 3 µM was 75%.

Question: And the remaining activity at 3 µM (BRK; [1])?
Answer: Its remaining activity at 3 µM is 25.1%.

Question: And the remaining activity at 3 µM (BRK; [2])?
Answer: Its remaining activity at 3 µM is 25%.

Question: What about the inhibition at 3 µM (MAPKAPK2) of the same compound?
Answer: The inhibition at 3 µM was -7.86%.

Question: And the remaining activity at 3 µM (MAPKAPK2; [1])?
Answer: Its remaining activity at 3 µM is 110%.

Question: What about the remaining activity at 3 µM (MAPKAPK2; [2]) of the same compound?
Answer: The remaining activity at 3 µM was 106%.

Question: And the inhibition at 3 µM (MNK2)?
Answer: The inhibition at 3 µM was 16.9%.

Question: What about the remaining activity at 3 µM (MNK2; [1]) of the same compound?
Answer: Its remaining activity at 3 µM is 83%.

Question: And the remaining activity at 3 µM (MNK2; [2])?
Answer: The remaining activity at 3 µM was 83.2%.

Question: And the inhibition at 3 µM (OSR1/OXSR1)?
Answer: Its inhibition at 3 µM is -19.2%.

Question: What about the remaining activity at 3 µM (OSR1/OXSR1; [1]) of the same compound?
Answer: Its remaining activity at 3 µM is 117%.

Question: What about the remaining activity at 3 µM (OSR1/OXSR1; [2]) of the same compound?
Answer: The remaining activity at 3 µM was 122%.

Question: What about the inhibition at 3 µM (TGFBR2) of the same compound?
Answer: Its inhibition at 3 µM is -0.19%.

Question: What about the remaining activity at 3 µM (TGFBR2; [1]) of the same compound?
Answer: The remaining activity at 3 µM was 98.1%.

Question: And the remaining activity at 3 µM (TGFBR2; [2])?
Answer: The remaining activity at 3 µM was 102%.
